Molecular target: Heat shock protein HSP 90-alpha (Homo sapiens, UniProt P07900)
Experiment: FRET Assay
Details: pH 7.5; 25 °C

Row | Ki [nM] | Compound
1 | 170 | Cc1cc(-c2ccc(Cl)cc2Cl)nc(N)n1 [HSP90 Inhibitor, 4]
2 | 60 | Nc1nc(Cl)cc(-c2ccc(Cl)cc2Cl)n1 [HSP90 Inhibitor, 5]
3 | 4000 | Cc1cc(C=Cc2ccccc2/C=N/N2CCOC2=O)nc(N)n1 [HSP90 Inhibitor, 7]
